Data as given in US6475479B1, “Terpenes for reducing the effect of pheromone on lepidoptera” (BASF Aktiengesellschaft, priority 1995, dated 2002).

Assays:
[1] = system: Lobesia males; assay: Laboratory wind tunnel preference test with pheromone-lured electric traps; format: in vivo; details: cartridges with 30 μl E7,Z9-dodecadien-1-yl acetate 10^-4 g/g silicone oil plus citral 10^-1 g/g silicone oil, relative to standard (pheromone alone) set equal to one
Description: Laboratory Wind Tunnel 4 electric traps up to […] in size were installed in a laboratory wind tunnel. As electric traps, commercially available electric insect capture appliances were rebuilt to give recording lure traps. The fluorescent tube normally responsible for the attractant action was replaced by a scent source. To avoid positional effects, the four traps were […]. The wheel rim was rotated by means of a motor having a speed of two revolutions per hour (once around its own axis and back), so that the traps continuously changed position. […] The number of moths trapped in each case was determined daily. By means of the number of moths trapped in the individual traps, the attractiveness of the particular lure was determined (preference test). The influence of various dilutions of E7,Z9-dodecadien-1-yl acetate was determined by setting the number of moths in the most common trap equal to one; the capturing ability of the other traps was calculated relative to this. […] The recapture rate of the standard was set equal to one and that of the traps with the terpene additive was calculated relative to this.

[2] = system: Lobesia males; assay: Outdoor wind tunnels over vine rows, simulated mating disruption; format: in vivo
Description: In spring 1994 two outdoor wind tunnels were built over a row of vines in each case in an experimental field of the SLFA Neustadt. These were aluminum scaffoldings 2 m high, 2 m wide and 10 m long.
The front and back were covered with mosquito nets made of cotton (mesh width 1.5×1.5 mm); 50μ thick polyethylene film lay over the entire length.
Air was blown into the interior through a ventilator at the front of the tunnel.
Two traps each were attached at a height of approximately 60 cm in the interior of the two wind tunnels on the ventilator side. The traps were lured with E7,Z9-dodecadien-1-yl acetate. Tunnel 1 remained untreated and served as a control. To simulate a mating disruption situation, 10 filter papers were uniformly distributed at various heights (20-120 cm) in tunnel 2 along the row of grapevines. 1 ml of citral solution in silicone oil with a dilution of 10^−1 g/g was in each case added dropwise to these in order to achieve a uniform concentration of the substance in the interior. A specific number of Lobesia males were in each case set free on the sides of the two wind tunnels opposite to the ventilator sides. After the end of the experiment, the Lobesia males captured in the traps were counted and the recapture rate was determined.

CC(C)=CCCC(C)=CC=O [citral]
inhibition of the recapture rate [1]: 90% | Recapture rate ([2]; ratio of captured to released Lobesia males, traps lured with E7,Z9-dodecadien-1-yl acetate, 10 filter papers each with 1 ml citral solution 10^-1 g/g in silicone oil in the tunnel): 0.01 | inhibition of the recapture rate ([2]; tunnel 2 (citral, 10 filter papers, 1 ml of 10^-1 g/g in silicone oil) versus untreated control tunnel 1): 94.5%
